What is called IC50 is the concentration that gives 50% inhibition. For orientation: minimal effective dose means the smallest amount tested that counted as effective.

Where two headings read alike, the source gives them in different places.

The target of assay [1] is α1-adrenergic binding site. Nature of the assay: binding at the α1-adrenergic binding site. The following applies: read-out: α1 IC50 (Nanomolar). As for the experimental part: (§1) The binding of representative compounds of this invention at the α1-adrenergic binding site was measured using the protocol described by Hornung, R., et al, Archiv. Pharm., 308:223 (1979). Similarly, the binding at the α2:adrenergic binding site was measured using the method of Rouot, B. R., et al, Life Sci., 25: 769 (1979). The data are presented in Table 2 and illustrate the α2 selectivity of the compounds.

Assay [2] relates to spatial working memory in hippocamally-deficient mice. Nature of the assay: Mouse Water Maze (MWM) test. It counts as in vivo, laboratory mice. The following applies: read-out: minimal effective dose (MED). Here is the method: This compound was tested in the Mouse Water Maze (MWM) test which is a direct test of spatial cognitive skill in laboratory mice. This test, which is described in Morris, R., J. Neurosci. Meth., 11: 47-60 (1984), measures the effect of a test drug on spatial working memory in hippocamally-deficient mice.

In assay [3] the test system is α2-adrenergic binding site. Nature of the assay: binding at the α2-adrenergic binding site. To be noted: for α1/α2: ratio of IC50 α1/α2; for IC50: read-out: α2 IC50 (Nanomolar). As for the experimental part: The α2 binding sites are presynaptic and are involved in the control of release of norepinephrine. A compound which acts selectively as an α2-adrenergic antagonist acts to increase noradrenergic activity. Such increases in noradrenergic activity are related to improved cognitive function in animals.
as §1

Assay [4] has as its system scopolamine-induced swimming hyperactivity. Briefly: scopolamine induced swimming test (SIS), reversal of scopolamine-induced swimming hyperactivity. To be noted: for inhibition in vivo at 0.32 mg/kg / inhibition in vivo at 3.2 mg/kg / inhibition in vivo at 32 mg/kg: Rattus norvegicus; for inhibition in vivo at 0.32 mg/kg: read-out: Percent Reversal Swimming Hyperactivity, Dose 0.32 mg/kg, SC; for inhibition in vivo at 3.2 mg/kg: read-out: Percent Reversal Swimming Hyperactivity, Dose 3.2 mg/kg, SC; for inhibition in vivo at 32 mg/kg: read-out: Percent Reversal Swimming Hyperactivity, Dose 32 mg/kg, SC; for reversal of scopolamine swimming hyperactivity: scopolamine-treated rats. Format: in vivo, laboratory rats (b65); mice (b66). Here is the method:
The biological activity of compounds of the present invention was evaluated using the "scopolamine induced swimming test" (SIS). This screen evaluated the ability of the test compounds to reverse the hyperactive swimming behavior of laboratory rats given scopolamine. in this test, untreated rats will generally swim between 20 to 30 meters during a five-minute test period. […] We have discovered unexpectedly that α2-adrenergic antagonists including the compounds in this application also reverse this swimming hyperactivity, perhaps through indirect stimulation of the cholinergic system.
SIS values are reported as the percent reversal of scopolamine, and are determined as follows: [formula] where U, SDT, and ST represent, respectively, the mean activity level in meters swum of untreated, scopolamine-and-drug-treated, and scopolamine-treated mice.

[5] abbreviates: 0.32 mg/kg, SC, vs scopolamine 0.1 mg/kg, five-minute test.
Setting [6] is: 3.2 mg/kg, SC, vs scopolamine 0.1 mg/kg, five-minute test.
[7] abbreviates: 32 mg/kg, SC, vs scopolamine 0.1 mg/kg, five-minute test.

As to `Clc1cccc(Nc2ccncc2)c1` [Compound 4, N-(3-Chlorophenyl)-4-pyridinamine], the IC50 in assay [1] was determined as 7500 nM. Moreover, in assay [2], the minimal effective dose came out at 3.2 mg/kg. For the same molecule, in assay [3] (from data in Table 2), the “selectivity for binding at the α2-adrenergic site” value is given as “high degree of selectivity for binding at the α2-adrenergic site”. Moreover, in assay [3], the α1/α2 is given as 56 and the IC50 was 133 nM. The inhibition in vivo at 0.32 mg/kg in assay [4] (setting [5]) came to 0%. In assay [4] (setting [6]), the inhibition in vivo at 3.2 mg/kg came out at 27%. Moreover, the inhibition in vivo at 32 mg/kg in assay [4] (setting [7]) was found to be 75%.
Regarding `C[N+]1(C)C2CC(OC(=O)C(CO)c3ccccc3)CC1C1OC12` (stereo not shown) [scopolamine methyl nitrate, reference compound], the “behavioral changes” value in assay [4] (same conditions as scopolamine) was “does not produce any behavioral changes”.
For `CC(=O)N(c1ccncc1)c1ccc(Cl)c(Cl)c1` [Compound 18, N-(3,4-Dichlorophenyl)-N-4-pyridinylacet-amide], in assay [4] (setting [5]), the inhibition in vivo at 0.32 mg/kg is 33%. In addition, the inhibition in vivo at 3.2 mg/kg in assay [4] (setting [6]) came out at 34%. The inhibition in vivo at 32 mg/kg in assay [4] (setting [7]) stood at 30%.
With `Nc1cccc(Nc2ccncc2)c1` [Compound 10, N-4-Pyridinyl-1,3-benzenediamine], the inhibition in vivo at 0.32 mg/kg in assay [4] (setting [5]) turned out to be 47%. Besides, in assay [4] (setting [6]), the inhibition in vivo at 3.2 mg/kg came to 0%. Further, the inhibition in vivo at 32 mg/kg in assay [4] (setting [7]) worked out at 41%.
In the case of `COC(=O)N(c1ccncc1)c1ccc(Cl)c(Cl)c1` [Compound 20, (3,4-Dichlorophenyl)-4-pyridinylcarbamic acid, methyl ester], in assay [4] (sc), the inhibition in vivo at 0.32 mg/kg stood at 6%, the inhibition in vivo at 3.2 mg/kg worked out at 0% and the inhibition in vivo at 32 mg/kg worked out at 9%.
For `CNC(=O)Oc1ccc2c(c1)[C@]1(C)CCN(C)[C@@H]1N2C` [physostigmine, reference compound], the “reversal of scopolamine swimming hyperactivity” value (shortened to “reversal”) in assay [4] is “can be reversed”.
As to `O=[N+]([O-])c1cccc(Nc2ccncc2)c1` [Compound 8, N-(3-Nitrophenyl)-4-pyridinamine], the inhibition in vivo at 0.32 mg/kg in assay [4] (setting [5]) came out at 40%. In addition, the inhibition in vivo at 3.2 mg/kg in assay [4] (setting [6]) was 39%. Moreover, the inhibition in vivo at 32 mg/kg in assay [4] (setting [7]) was found to be 70%.
Consider `Cc1ccc(Nc2ccncc2)c([N+](=O)[O-])c1` [Compound 16, N-(4-Methyl-2-nitrophenyl)-4-pyridinamine], for which the inhibition in vivo at 0.32 mg/kg in assay [4] (setting [5]) amounted to 0%. In assay [4] (setting [6]), the inhibition in vivo at 3.2 mg/kg is 3%. Besides, the inhibition in vivo at 32 mg/kg in assay [4] (setting [7]) was 14%.
The matching figures for `CN(C)c1cccc(Nc2ccncc2)c1` [Compound 11, N,N-Dimethyl-N'-4-pyridinyl-1,3-benzene-diamine]: 15%, 4% and 61%.
On to `COC(=O)c1cccc(Nc2ccncc2)c1` [Compound 12, 3-(4-Pyridinylamino)benzoic acid, methyl ester], for which the inhibition in vivo at 0.32 mg/kg in assay [4] (setting [5]) was determined as 15%. Also, the inhibition in vivo at 3.2 mg/kg in assay [4] (setting [6]) amounted to 0%. Further, the inhibition in vivo at 32 mg/kg in assay [4] (setting [7]) came to 8%.
The matching figures for `Nc1ccccc1Nc1ccncc1` [Compound 9, N-4-Pyridinyl-1,2-benzenediamine]: 15%, 18% and 72%.
Consider `CC(=O)N(c1ccncc1)c1ccc(C)cc1` [Compound 17, N-(4-Methylphenyl)-N-4-pyridinylacetamide], for which the IC50 in assay [1] is more than 10000 nM; in assay [3] it was 5400 nM. Moreover, the α1/α2 in assay [3] is reported as more than 1.9. Further, the inhibition in vivo at 0.32 mg/kg in assay [4] (setting [5]) stood at 35%. Moreover, the inhibition in vivo at 3.2 mg/kg in assay [4] (setting [6]) amounted to 56%. Moreover, in assay [4] (setting [7]), the inhibition in vivo at 32 mg/kg amounted to 21%.
`CN1[C@@H]2C[C@@H](OC(=O)[C@H](CO)c3ccccc3)C[C@H]1[C@@H]1O[C@@H]12` [scopolamine, reference compound]: in assay [4] (scopolamine 0.1 mg/kg, five-minute test period, rats), the “increase of swimming distances above baseline values” is 75-125%.
Turning to `FC(F)(F)c1ccc(Nc2ccncc2)cc1` [Compound 6, N-[4-(Trifluoromethyl)phenyl]-4-pyridin-amine], in assay [4] (setting [5]), the inhibition in vivo at 0.32 mg/kg is 0%. Also, the inhibition in vivo at 3.2 mg/kg in assay [4] (setting [6]) was 16%. Also, the inhibition in vivo at 32 mg/kg in assay [4] (setting [7]) stood at 55%.
As for `COC(=O)N(c1ccncc1)c1ccc(C)cc1` [Compound 19, (4-Methylphenyl)-4-pyridinylcarbamic acid, methyl ester], in assay [4] (sc), the inhibition in vivo at 0.32 mg/kg came out at 36%, the inhibition in vivo at 3.2 mg/kg turned out to be 20% and the inhibition in vivo at 32 mg/kg was 17%.
For `CN(C)C(=O)Oc1cccc([N+](C)(C)C)c1` [neostigmine, reference compound], in assay [4], the “reversal” value is reported as “does not reverse the effect of scopolamine”.
For the molecule `O=[N+]([O-])c1cc(Nc2ccncc2)ccc1Cl` [Compound 15, N-(4-Chloro-3-nitrophenyl)-4-pyridinamine], the inhibition in vivo at 0.32 mg/kg in assay [4] (setting [5]) was found to be 26%. Further, the inhibition in vivo at 3.2 mg/kg in assay [4] (setting [6]) worked out at 0%. Also, the inhibition in vivo at 32 mg/kg in assay [4] (setting [7]) turned out to be 0%.
Turning to `COc1cccc(Nc2ccncc2)c1` [Compound 7, N-(3-Methoxyphenyl)-4-pyridinamine], in assay [4] (setting [5]), the inhibition in vivo at 0.32 mg/kg worked out at 23%. Besides, in assay [4] (setting [6]), the inhibition in vivo at 3.2 mg/kg stood at 62%. The inhibition in vivo at 32 mg/kg in assay [4] (setting [7]) is 31%.
On to `FC(F)(F)c1cccc(Nc2ccncc2)c1` [Compound 5, N-[3-(Trifluoromethyl)phenyl]-4-pyridin-amine], for which the inhibition in vivo at 0.32 mg/kg in assay [4] (setting [5]) was determined as 0%. In assay [4] (setting [6]), the inhibition in vivo at 3.2 mg/kg stood at 0%. The inhibition in vivo at 32 mg/kg in assay [4] (setting [7]) was 57%.
Take `Cc1cccc(Nc2ccncc2)c1` [Compound 2, N-(3-Methylphenyl)-4-pyridinamine]: in assay [4] (setting [5]), the inhibition in vivo at 0.32 mg/kg turned out to be 52%. In addition, the inhibition in vivo at 3.2 mg/kg in assay [4] (setting [6]) stood at 36%. Further, the inhibition in vivo at 32 mg/kg in assay [4] (setting [7]) amounted to 66%.
Consider `Cc1ccc(Nc2ccncc2)cc1` [Compound 3, N-(4-Methylphenyl)-4-pyridinamine], for which the IC50 in assay [1] came out at 1600 nM. In assay [3], the α1/α2 was determined as 43 and the IC50 was determined as 37 nM. Also, the inhibition in vivo at 0.32 mg/kg in assay [4] (setting [5]) was 10%. Besides, the inhibition in vivo at 3.2 mg/kg in assay [4] (setting [6]) stood at 25%. Further, the inhibition in vivo at 32 mg/kg in assay [4] (setting [7]) is 100%.
As for `Clc1ccc(Nc2ccncc2)cc1Cl` [Compound 14, N-(3,4-Dichlorophenyl)-4-pyridinamine], the half-inhibitory concentration (IC50) in assay [1] is more than 1000 nM. For the same molecule, in assay [3], the α1/α2 is given as more than 8.5 and the IC50 was 118 nM. Further, the inhibition in vivo at 0.32 mg/kg in assay [4] (setting [5]) was found to be 31%. For the same molecule, the inhibition in vivo at 3.2 mg/kg in assay [4] (setting [6]) amounted to 37%. Moreover, in assay [4] (setting [7]), the inhibition in vivo at 32 mg/kg is 64%.
Consider `COC(=O)C1=CCCN(C)C1` [arecoline, reference compound], for which, in assay [4], the “reversal” value is “can be reversed”.
As for `Clc1ccc(Nc2ccncc2)c(Cl)c1` [Compound 13, N-(2,4-Dichlorophenyl)-4-pyridinamine], in assay [4] (setting [5]), the inhibition in vivo at 0.32 mg/kg was 0%. Moreover, the inhibition in vivo at 3.2 mg/kg in assay [4] (setting [6]) amounted to 24%. Moreover, the inhibition in vivo at 32 mg/kg in assay [4] (setting [7]) is 0%.
`c1ccc(Nc2ccncc2)cc1` [Compound 1, N-Phenyl-4-pyridinamine]: the inhibition in vivo at 0.32 mg/kg in assay [4] (setting [5]) amounted to 27%. In addition, the inhibition in vivo at 3.2 mg/kg in assay [4] (setting [6]) was 22%. Further, in assay [4] (setting [7]), the inhibition in vivo at 32 mg/kg turned out to be 57%.

The values above are taken from patent US4855308A, “Method of treating senile cognitive decline with N'-substituted aminopyridine adrenergic agents” (Warner-Lambert Company, priority 1987, dated 1989).
